The source of these data is article PMC8704944, “From Far West to East: Joining the Molecular Architecture of Imidazole-like Ligands in HO-1 Complexes” (Pharmaceuticals, 2021).

Usually IC50 stands for the concentration at which inhibition is half-maximal. In general, melting point refers to the temperature of the solid-liquid transition.

Several values for one entry are separate records, joined by “and”; a condition that tells them apart may be missing. Equal entries are not always repeated. Structures can show the parent of a compound that is named as a salt. A value given as a limit tells only on which side of the number the result lay.

One data set has as its system HO-2.
Experiment: not given
Particulars: representative inhibitor, printed in picture of Figure 1; cited from earlier work.
As for `FC(F)(F)c1ccc(SC[C@@H]2CO[C@@](CCc3ccc(Cl)cc3)(Cn3ccnc3)O2)nc1` [QC-80], the IC50 is 16 µM.

In a further data set the target is T1, HO-1 (Rattus norvegicus, UniProt P06762).
T1 construct: Rat spleen microsomal fractions were chosen to isolate HO-1 in its most native form; from tissue; host or cells: rat spleen (male Sprague-Dawley), 100,000 g microsomal pellet
T1 sequence (P06762 1-289): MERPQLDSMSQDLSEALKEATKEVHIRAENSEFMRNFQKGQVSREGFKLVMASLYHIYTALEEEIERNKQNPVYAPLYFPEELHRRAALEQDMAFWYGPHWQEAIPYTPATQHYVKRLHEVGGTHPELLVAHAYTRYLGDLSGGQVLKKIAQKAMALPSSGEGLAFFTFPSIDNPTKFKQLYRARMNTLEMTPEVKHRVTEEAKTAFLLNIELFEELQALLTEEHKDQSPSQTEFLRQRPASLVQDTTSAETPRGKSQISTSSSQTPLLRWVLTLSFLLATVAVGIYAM
Description: HO-1 enzymatic activity in the microsomal fraction of rat spleen (bilirubin formation). The conditions noted are these: rat spleen microsomal fraction; mean ± SD of triplicate experiments. The class given is biochemical. How it is done: The inhibitory potency of the novel compounds was evaluated reproducing in vitro the HO-1 catalytic cycle. Rat spleen microsomal fractions were chosen to isolate HO-1 in its most native form; indeed, it is well known that in basal conditions, HO-1 is highly expressed in spleen tissues. […] Among the three catabolites, bilirubin concentrations can easily be monitored spectrophotometrically; the lowest is the absorbance detected with the assay, and the highest is the potency of the putative inhibitor. Results obtained from the in vitro enzymatic assay are reported in Table 1, using Azalanstat as the reference compound.
Rat spleen microsomal fraction obtained by differential centrifugation, according to Ryter et al., was used as source of the HO-1 protein. As reported in the literature, HO-1 is abundant in the rat spleen. We chose this source because it represents the most native (i.e., closest to in vivo) form of HO-1. The experiments reported in the present paper complied with current Italian law and met the guidelines of the Institutional Animal Care and Use Committee of the Ministry of Health (Directorate-General for Animal Health and Veterinary Medicines, Italy) “Dosing of enzymatic activities in rat microsomes” (2018–2022), project code 02769.N.VLY. We used male albino rats of strain Sprague–Dawley (150 g body weight and age 45 d) to obtain spleen microsomal fraction. Rats had free access to water and were kept at room temperature with a natural photoperiod (12 h light–12 h dark cycle). Each rat was sacrificed, and their spleens were pooled and then homogenized in 50 mM Tris buffer, pH 7.4, containing 0.25 M sucrose, using a Potter–Elvehjem homogenizing system with a Teflon pestle. Rat spleen homogenate was centrifuged at 10,000× g for 20 min at 4 °C, and the supernatant was centrifuged at 100,000× g for 60 min at 4 °C. The 100,000 g pellet (microsomes) was resuspended in 100 mM potassium phosphate buffer, pH 7.8, containing MgCl2 2 mM. After measuring its protein concentration, the microsomal fraction was aliquoted and stored at −80 °C for up to 2 months.
Liver tissue was used to obtain biliverdin reductase. Liver tissue was homogenized on ice in 3 volumes of a solution 1.15% KCl w/v and Tris buffer 20 mM, pH 7.8. Rat liver homogenate was centrifuged at 10,000× g for 20 min at 4 °C, and the supernatant was centrifuged at 100,000× g for 1 h at 4 °C. The 100,000 g supernatant was aliquoted and stored at −80 °C after its protein concentration was measured.
Determination of HO-1 activity has been performed by measuring the bilirubin formation using the difference in absorbance at 464–530 nm as described by Ryter et al.. The incubation mixture contained the following in a final volume of 500 µL: 20 mM Tris–HCl, pH 7.4, (1 mg/mL) microsomal extract, 0.5–2 mg/mL biliverdin reductase, 1 mM NADPH, 2 mM glucose 6-phosphate (G6P), 1 U G6P dehydrogenase, 25 µM hemin, and 10 µL of DMSO (or the same volume of DMSO solution of test compounds to a final concentration of 100, 10, and 1 µM). Enzymatic reactions were carried out in the dark for 1 h at 37 °C in a circulating water bath. Then, 500 µL of chloroform was used to stop the reaction. The amount of bilirubin formed was measured in the chloroform phase, with a double-beam spectrophotometer as OD464–530 nm (extinction coefficient, 40 mM/cm for bilirubin). The enzymatic activity was defined as Units (one Unit is the amount of enzyme catalyzing the formation of 1 nmol of bilirubin/mg protein/h).
Take `O=C(NCCCn1ccnc1)c1cc2cc(OCc3ccccc3)ccc2[nH]1` [Compound 1, N-(3-(1H-Imidazol-1-yl)propyl)-5-(benzyloxy)-1H-indole-2-carboxamide]: the IC50 was determined as 89.6 ± 6.1 µM.

Compound `Cc1ccc2c(c1)cc(C(=O)NCCCn1ccnc1)n2C` [Compound 4a, N-(3-(1H-Imidazol-1-yl)propyl)-1,5-dimethyl-1H-indole-2-carboxamide] displayed an IC50 of 367 ± 34.5 µM.

In the case of `COc1ccc2c(c1)cc(C(=O)NCCCn1ccnc1)n2C` [Compound 4b, N-(3-(1H-Imidazol-1-yl)propyl)-5-methoxy-1-methyl-1H-indole-2-carboxamide], the IC50 was > 100 µM and 113 µM.

`COc1cc2cc(C(=O)NCCCn3ccnc3)n(C)c2cc1OC` [Compound 4c, N-(3-(1H-Imidazol-1-yl)propyl)-5,6-dimethoxy-1-methyl-1H-indole-2-carboxamide] came in with an IC50 of 55.5 ± 3.82 µM.

As to `Cn1c(C(=O)NCCCn2ccnc2)cc2cc(OCc3ccccc3)ccc21` [Compound 4d, N-(3-(1H-Imidazol-1-yl)propyl)-5-(benzyloxy)-1-methyl-1H-indole-2-carboxamide], the “HO-1 IC50” value is reported as “low micromolar range” and it took 1.03 ± 0.13 µM to reach half-maximal inhibition (IC50).

In the case of `Cc1ccc2c(c1)cc(C(=O)NCCCn1ccnc1)n2Cc1ccccc1` [Compound 8a, N-(3-(1H-Imidazol-1-yl)propyl)-1-benzyl-5-methyl-1H-indole-2-carboxamide], half-maximal inhibition (IC50) required 2060 ± 412 µM.

Regarding `COc1ccc2c(c1)cc(C(=O)NCCCn1ccnc1)n2Cc1ccccc1` [Compound 8b, N-(3-(1H-Imidazol-1-yl)propyl)-1-benzyl-5-methoxy-1H-indole-2-carboxamide], the IC50 was > 100 µM and 349 µM.

`COc1cc2cc(C(=O)NCCCn3ccnc3)n(Cc3ccccc3)c2cc1OC` [Compound 8c, N-(3-(1H-Imidazol-1-yl)propyl)-1-benzyl-5,6-dimethoxy-1H-indole-2-carboxamide] registered a concentration for half-maximal inhibition (IC50) of 81 ± 4.65 µM.

The same data set, now with this note: versus compound 1.
Consider `Cn1c(C(=O)NCCCn2ccnc2)cc2cc(OCc3ccccc3)ccc21` [Compound 4d, N-(3-(1H-Imidazol-1-yl)propyl)-5-(benzyloxy)-1-methyl-1H-indole-2-carboxamide], for which the “fold more potent than parent compound 1 (HO-1 IC50)” value turned out to be 87 fold.

Test system in the next data set: not given
Experiment: not given
Details: not given
`Cc1ccc2c(c1)cc(C(=O)NCCCn1ccnc1)n2C` (as salt: hydrochloride) [Compound 4a, N-(3-(1H-Imidazol-1-yl)propyl)-1,5-dimethyl-1H-indole-2-carboxamide] had a melting point of 102 to 103 °C.

`COc1ccc2c(c1)cc(C(=O)NCCCn1ccnc1)n2C` (as salt: hydrochloride) [Compound 4b, N-(3-(1H-Imidazol-1-yl)propyl)-5-methoxy-1-methyl-1H-indole-2-carboxamide] displayed a melting point of 121 to 122 °C.

As for `COc1cc2cc(C(=O)NCCCn3ccnc3)n(C)c2cc1OC` (as salt: hydrochloride) [Compound 4c, N-(3-(1H-Imidazol-1-yl)propyl)-5,6-dimethoxy-1-methyl-1H-indole-2-carboxamide], the melting point was in the range of 146 to 147 °C.

With `Cn1c(C(=O)NCCCn2ccnc2)cc2cc(OCc3ccccc3)ccc21` (as salt: hydrochloride) [Compound 4d, N-(3-(1H-Imidazol-1-yl)propyl)-5-(benzyloxy)-1-methyl-1H-indole-2-carboxamide], the melting point lay within 174 to 175 °C.

The compound `Cc1ccc2c(c1)cc(C(=O)NCCCn1ccnc1)n2Cc1ccccc1` (as salt: hydrochloride) [Compound 8a, N-(3-(1H-Imidazol-1-yl)propyl)-1-benzyl-5-methyl-1H-indole-2-carboxamide] showed a melting point of 178 to 179 °C.

The compound `COc1ccc2c(c1)cc(C(=O)NCCCn1ccnc1)n2Cc1ccccc1` (as salt: hydrochloride) [Compound 8b, N-(3-(1H-Imidazol-1-yl)propyl)-1-benzyl-5-methoxy-1H-indole-2-carboxamide] came in with a melting point of 151 to 152 °C.

Regarding `COc1cc2cc(C(=O)NCCCn3ccnc3)n(Cc3ccccc3)c2cc1OC` (as salt: hydrochloride) [Compound 8c, N-(3-(1H-Imidazol-1-yl)propyl)-1-benzyl-5,6-dimethoxy-1H-indole-2-carboxamide], the melting point fell in the range of 110 to 111 °C.

As for `O=C(NCCCn1ccnc1)c1cc2cc(OCc3ccccc3)ccc2[nH]1` [Compound 1, N-(3-(1H-Imidazol-1-yl)propyl)-5-(benzyloxy)-1H-indole-2-carboxamide], the melting point was in the range of 204 to 206 °C.

The next data set has as its system HO-1.
Experiment: not given
Particulars: representative inhibitor, printed in picture of Figure 1; cited from earlier work.
As for `FC(F)(F)c1ccc(SC[C@@H]2CO[C@@](CCc3ccc(Cl)cc3)(Cn3ccnc3)O2)nc1` [QC-80], the IC50 was 2.1 µM.
